Assay results as given in US20040029906A1, “Inhibitors of dna polymerase sigma” (priority 2003, published 2004).
Entries after “also recorded” stand apart in the source; their conditions may differ. Where two headings read alike, the source gives them in different places.

How the values were obtained:
[1] = target: human pol sigma (pol sigma-1) (Homo sapiens, UniProt Q5XG87); experiment: inhibition of human pol sigma; format: biochemical
[2] = target: T1, yeast polymerase σ (Trf4, pol sigma-I) (Saccharomyces cerevisiae, UniProt P53632); experiment: in vitro primer extension assay (5'-32P dT16 primer / poly dA template) for polymerase σ inhibition; format: biochemical, yeast (S. cerevisiae); details: for inhibition of polymerase σ in primer extension assay (FIG. 3), in words: 10 μM test compound, 5 min, dTTP, Mg2+; for concentration level of yeast pol sigma inhibition, in words: yeast pol sigma in vitro
T1 construct: His6 (peptide tag containing six histidines); made in house; host or cells: E. coli
T1 sequence (P53632 1-584): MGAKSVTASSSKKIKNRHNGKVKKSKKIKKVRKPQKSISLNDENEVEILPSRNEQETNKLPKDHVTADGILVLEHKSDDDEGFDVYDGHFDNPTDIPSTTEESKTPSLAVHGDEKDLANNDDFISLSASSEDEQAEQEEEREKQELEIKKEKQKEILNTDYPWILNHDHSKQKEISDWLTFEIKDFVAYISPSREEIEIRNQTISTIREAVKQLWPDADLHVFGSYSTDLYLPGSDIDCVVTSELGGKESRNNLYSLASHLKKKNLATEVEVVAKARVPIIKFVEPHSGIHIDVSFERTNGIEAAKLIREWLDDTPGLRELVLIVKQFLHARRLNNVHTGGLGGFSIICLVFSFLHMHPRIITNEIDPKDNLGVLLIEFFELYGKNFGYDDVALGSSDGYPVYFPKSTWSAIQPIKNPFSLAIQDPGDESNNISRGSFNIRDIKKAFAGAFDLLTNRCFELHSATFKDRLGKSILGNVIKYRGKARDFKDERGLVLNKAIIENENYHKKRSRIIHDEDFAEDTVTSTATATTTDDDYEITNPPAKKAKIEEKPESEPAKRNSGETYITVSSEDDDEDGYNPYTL
Protocol: Due to the predicted structural similarity between pol sigma and pol β (Aravind and Koonin, 1999, Nucleic Acids Research 27: 1609-1618) several known β polmerase inhibitors were tested to determine if they would inhibit pol sigma in vitro. […] The template primer was incubated in the presence of dTTP, Mg^2+ and 10 μM test compound for 5 min. […] Lane 1 of FIG. 3 is a control with only the DMSO solvent added to the poly dA/ oligo dT assay, the remaining lanes represent reactions run in the presence of one of the β polmerase inhibitors.
The assay system that has been employed to date employs a dT16 primer annealed to a poly dA template (average length 282 nucleotides). Primer elongation as a consequence of the addition of T residues (in a distributive fashion) has been monitored by polyacrylamide gel electrophoresis. For purposes of screening for inhibitors a variant of the DNA polymerase β this system will be used as follows: […]

rat polymerase β = rat polymerase β (Rattus norvegicus, UniProt P06766); format: biochemical
Protocol: To a 50 μL of 62.5 mM 2-amino-2-methyl-1,3-propanediol buffer, pH 8.6, containing 10 mM MgCl2, 1 mM DTT, 100 μg/mL BSA, 6.25 μM dNTPs including 0.04 Ci/mmol [^3H]dTTP, and 0.25 mg/mL activated calf thymus DNA was added 6 μL of a solution containing each test compound and 4 μL of recombinant rat liver DNA polymerase β preparation (6.9 units, 4.8×10^4 units/mg). After incubation at 37° C. for 60 min, the radiolabeled DNA product was collected on DEAE-cellulose paper (DE-81), dried, and rinsed successively with 0.4 M K2HPO4, pH 9.4, and 95% ethanol for radioactivity determination.

P388D1 cells = experiment: P388D1 cell viability, camptothecin and ursolic acid alone or together (Trypan Blue, hemacytometer); details: 6 hr incubation, 1 μM camptothecin, 0.5 μM ursolic acid
Source text: (§1) Viable cells were scored by the use of a hemacytometer plate after straining with Trypan Blue.

[3] = as above; details: mouse, % viability, 6 hr incubation, 1 μM camptothecin, 0.5 μM ursolic acid
Source text: as §1

[4] = system: TRF4-deficient yeast (trf4 single mutants); experiment: yeast spot growth assay, sensitivity to camptothecin; format: cell-based, S. cerevisiae (yeast)
Protocol: Spots represent serial 10-fold dilutions of saturated yeast cultures spotted onto Petri plates and incubated at 30° C. for 2 days in the presence of 10 ug/ml of camptothcin (FIG. 1A) or absence of drug (FIG. 1B).

Chain of human pol sigma (pol sigma-1) (Q5XG87 whole entry): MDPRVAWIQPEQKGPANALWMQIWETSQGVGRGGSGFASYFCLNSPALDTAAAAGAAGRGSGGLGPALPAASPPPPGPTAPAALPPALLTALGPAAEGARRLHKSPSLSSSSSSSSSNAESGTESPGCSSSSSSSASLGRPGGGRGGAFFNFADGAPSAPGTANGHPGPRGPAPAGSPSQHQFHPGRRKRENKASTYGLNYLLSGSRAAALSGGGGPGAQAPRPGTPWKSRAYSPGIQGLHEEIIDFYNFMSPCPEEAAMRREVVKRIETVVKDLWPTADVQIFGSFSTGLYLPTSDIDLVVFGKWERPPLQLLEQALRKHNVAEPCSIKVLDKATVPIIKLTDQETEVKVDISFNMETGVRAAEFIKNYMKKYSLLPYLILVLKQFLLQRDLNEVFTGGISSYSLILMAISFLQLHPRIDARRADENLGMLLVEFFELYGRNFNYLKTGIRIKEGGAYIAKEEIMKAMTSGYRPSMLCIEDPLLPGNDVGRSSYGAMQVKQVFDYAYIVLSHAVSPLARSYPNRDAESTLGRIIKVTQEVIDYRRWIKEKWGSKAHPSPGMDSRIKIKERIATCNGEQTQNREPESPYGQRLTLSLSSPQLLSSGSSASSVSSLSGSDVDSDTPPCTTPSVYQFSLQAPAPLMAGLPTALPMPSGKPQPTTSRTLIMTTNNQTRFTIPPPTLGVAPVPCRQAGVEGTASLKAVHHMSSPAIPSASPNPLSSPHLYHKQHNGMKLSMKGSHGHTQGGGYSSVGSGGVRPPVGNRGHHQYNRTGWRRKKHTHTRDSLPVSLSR

| Structure (SMILES) | inhibitory activity against human pol sigma, in words [1] | IC50 [2] [nM] | pol sigma polymerase activity observed in presence of compound ([2]; 10 uM concentration) | inhibition of polymerase σ in primer extension assay (FIG. 3), in words [2] | concentration level of yeast pol sigma inhibition, in words [2] | rank order of potencies for rat polymerase β (rat polymerase β; rat polymerase β) | rank order of potencies for rat polymerase β (rat polymerase β) | toxicity to P388D1 cells, in words (P388D1 cells) | viability at 6 h ([3]; P388D1 cells (suspension culture), Experiment 1, P388D1 cells) [%] | viability at 6 h ([3]; P388D1 cells (suspension culture), Experiment 2, P388D1 cells) [%] | sensitivity of pol sigma-deficient yeast relative to wild-type strains, in words ([4]; 10 ug/ml, 30° C., 2 days, trf4::HIS3 and mcd1-1) | sensitivity of yeast cells lacking TRF4 to the agent relative to wild type ([4]; yeast cells lacking TRF4 (FIG. 1)) | concentration level of yeast pol sigma inhibition, in words ([2]; listed as Ursolic acid) | viability at 6 h ([3]; Experiment 1, P388D1 cells) [%] | viability at 6 h ([3]; Experiment 2, P388D1 cells) [%] |
| --- | --- | --- | --- | --- | --- | --- | --- | --- | --- | --- | --- | --- | --- | --- | --- |
| C/C(=C\CC[C@@H](C)[C@@H]1CC[C@]2(C)C3=CC[C@H]4C(C)(C)[C@@H](O)CC[C@]4(C)[C@H]3CC[C@@]12C)C(=O)O [(24E)-3beta-hydroxy-7,24-euphandien-26-oic acid] | inhibitory activity; also recorded: active, albeit only at micromolar concentrations; also recorded: also work to inhibit human pol sigma-1 | ~500 | no activity whatsoever | most potent of the species tested | nanomolar level inhibitor | ursolic acid >betulinic acid >> 3β-hydroxy-7,24-euphandien-26-oic acid | – | – | – | – | – | – | – | – | – |
| C=C(C)[C@@H]1CC[C@]2(C(=O)O)CC[C@]3(C)[C@H](CC[C@@H]4[C@@]5(C)CC[C@H](O)C(C)(C)[C@@H]5CC[C@]43C)[C@@H]12 [betulinic acid] | – | – | – | showing activity | micromolar concentrations | – | ursolic acid >betulinic acid >> 3β-hydroxy-7,24-euphandien-26-oic acid | – | – | – | – | – | – | – | – |
| CC[C@@]1(O)C(=O)OCc2c1cc1n(c2=O)Cc2cc3ccccc3nc2-1 [camptothecin] | – | – | – | – | – | – | – | minimal toxicity | 84 | 77 | hypersensitive | 10,000 fold | – | – | – |
| C[C@H]1[C@H](C)CC[C@]2(C(=O)O)CC[C@]3(C)C(=CC[C@@H]4[C@@]5(C)CC[C@H](O)C(C)(C)[C@@H]5CC[C@]43C)[C@H]12 [ursolic acid] | inhibitory activity | – | – | showing activity | micromolar concentrations | – | ursolic acid >betulinic acid >> 3β-hydroxy-7,24-euphandien-26-oic acid | minimal toxicity | – | – | – | – | inhibits yeast polymerase σ | 88 | 77 |
